# Test results taken from US8933233B2, “1,3,4-oxadiazole and 1,3,4-thiadiazole β-lactamase inhibitors” (priority 2012, dated 2015).
# Where a name gives a salt, the structure may show the parent alone.
# Tests used:
# [1] = system: bacterial strains that express the class D cephalosporinase OXA-15; assay: Synergy MIC / standard BLI potentiation MIC assay, strains expressing OXA-15; type: cell-based, E. coli; conditions: in presence of a β-lactam; comparator Avibactam (CCC)
# Protocol: (§1) Unless otherwise indicated, the activity of the BLI compounds can be described by the MIC value obtained from a Synergy MIC assay or a BLI potentiation assay (e.g as described herein), both of which are run in the presence of a β-lactam.
# (§2) The experimental protocol was performed according to Clinical and Laboratory Standards Institute (CLSI) guidelines with modifications as described below (CLSI guidelines can be derived from the CLSI document M07-A9 published in January 2012: “Methods for Dilution Antimicrobial Susceptibility Tests for Bacteria That Grow Aerobically; Approved Standard-Ninth Edition”).
# (§3) To prepare for MIC testing, frozen glycerol stocks of clinical isolates (Klebsiella pneumoniae, Eschericia coli, Enterobacter spp, Citrobacter spp, or Pseudomonas aeruginosa) were used to streak for isolated colonies on rich, non-selective, tryptic soy agar containing 5% sheep's blood (TSAB). Frozen glycerol stocks of laboratory engineered, isogenic E. coli strains, which contain cloned β-lactamase expressing plasmids were used to streak for isolated colonies on rich, selective LB agar supplemented with 25 μg/mL tetracycline to maintain the plasmid. All strains were incubated at 37° C. for 18-24 hrs.
# (§4) On the day of testing, primary cultures were started by scraping off 5-10 colonies from the TSAB plates containing clinical strains or the tetracycline supplemented LB plates containing engineered strains. The clinical strain material was suspended in ˜5 mL of cation adjusted Mueller Hinton Broth (CAMHB) in 14 mL culture tubes. The engineered strain material was suspended in CAMHB (supplemented with 25 μg/mL tetracycline) in 14 mL culture tubes. All strains were incubated at 37° C. with aeration (200 rpm) for ˜2 hrs until the optical density at 600 nm (OD600) was ≧0.1.
# (§5) The two compound components of the assay were each diluted in CAMHB and added to the 96-well broth microdilution assay plates. 50 μL of the β-lactam was added to each well of the assay plate in 2-fold dilutions with final concentrations ranging from 128 to 0.13 μg/mL. 25 μL of the BLI compound was added to all wells in the broth microdilution plates at a final concentration of 4 μg/mL. Inoculum cultures were prepared by standardizing the primary cultures to OD600=0.1 and then adding 20 μL of the adjusted primary culture per 1 mL CAMHB for clinical strains or CAMHB (supplemented with tetracycline at 100 μg/mL) for engineered strains, so that the final inoculum density was ˜10^5 colony forming units per milliliter. Diluted inoculum cultures were used to inoculate 25 μL per well in 96-well broth microdilution assay plates. The final volume of each well was 100 μL and contained a β-lactam at different concentrations, a BLIcompound at 4 μg/mL concentration, the bacterial culture at an OD600 of approximately 0.001 and when necessary tetracycline at 25 μg/mL.
# (§6) Plates were incubated for 18-20 hours at 37° C. with aeration (200 rpm). Following incubation, growth was confirmed visually placing plates over a viewing apparatus (stand with a mirror underneath) and then OD600 was measured using a SpectraMax 340PC384 plate reader (Molecular Devices, Sunnyvale, Calif.). Growth was defined as turbidity that could be detected with the naked eye or achieving minimum OD600 of 0.1. MIC values were defined as the lowest concentration producing no visible turbidity.
# (§7) The synergy MIC (sMIC) assay determines the concentration of the BLI required to potentiate the activity of a fixed concentration of a β-lactam antibiotic against β-lactamase producing bacterial strains. The experimental protocol was performed according to Clinical and Laboratory Standards Institute (CLSI) guidelines with modifications as described below (CLSI guidelines can be derived from the CLSI document M07-A9 published in January 2012: “Methods for Dilution Antimicrobial Susceptibility Tests for Bacteria That Grow Aerobically; Approved Standard-Ninth Edition”). […]
# [2] = system: bacterial strains that express KPC β-lactamases; assay: Synergy MIC / standard BLI potentiation MIC assay, strains expressing KPC β-lactamases; type: cell-based, isogenic E. coli and clinical isolates; conditions: more active for at least one KPC strain and/or better spectrum; comparator Avibactam
# Protocol: as §1, §2, §3, §4, §5, §6, §7
SMILES,"activity against bacterial strains that express OXA-15, compared with Avibactam [1]","activity and/or spectrum of activity against bacterial strains that express KPC β-lactamases, compared with Avibactam [2]"
"O=C1N2C[C@@H](CC[C@H]2c2nnc(C3CC4(CNC4)C3)o2)N1OS(=O)(=O)O [Compound 750, (2S,5R)-2-(5-(2-azaspiro[3.3]heptan-6-yl)-1,3,4-oxadiazol-2-yl)-7-oxo-1,6-diazabicyclo[3.2.1]octan-6-yl hydrogen sulfate]",more active than Avibactam,more active than Avibactam
"O=C1N2C[C@@H](CC[C@H]2c2nnc([C@@H]3CCNC3)o2)N1OS(=O)(=O)O [Compound 759, (2S,5R)-7-oxo-2-(5-((R)-pyrrolidin-3-yl)-1,3,4-oxadiazol-2-yl)-1,6-diazabicyclo[3.2.1]octan-6-yl hydrogen sulfate]",more active than Avibactam,more active than Avibactam
"CC(C)(N)Cc1nnc([C@@H]2CC[C@@H]3CN2C(=O)N3OS(=O)(=O)O)o1 [Compound 737, (2S,5R)-2-(5-(2-amino-2-methylpropyl)-1,3,4-oxadiazol-2-yl)-7-oxo-1,6-diazabicyclo[3.2.1]octan-6-yl hydrogen sulfate]",more active than Avibactam,more active than Avibactam
"O=C1N2C[C@@H](CC[C@H]2c2nnc(C3CCNC3)o2)N1OS(=O)(=O)O (stereo partly drawn) [Compound 710, (2S,5R)-7-oxo-2-(5-(pyrrolidin-3-yl)-1,3,4-oxadiazol-2-yl)-1,6-diazabicyclo[3.2.1]octan-6-yl hydrogen sulfate]",more active than Avibactam,more active than Avibactam
"N=C(N)NC[C@@H](O)c1nnc([C@@H]2CC[C@@H]3CN2C(=O)N3OS(=O)(=O)O)o1 [Compound 731, (2S,5R)-2-(5-((R)-2-guanidino-1-hydroxyethyl)-1,3,4-oxadiazol-2-yl)-7-oxo-1,6-diazabicyclo[3.2.1]octan-6-yl hydrogen sulfate]",more active than Avibactam,more active than Avibactam
"N=C(N)NC1CC(Cc2nnc([C@@H]3CC[C@@H]4CN3C(=O)N4OS(=O)(=O)O)o2)C1 (stereo partly drawn) [Compound 752, (2S,5R)-2-(5-((3-guanidinocyclobutyl)methyl)-1,3,4-oxadiazol-2-yl)-7-oxo-1,6-diazabicyclo[3.2.1]octan-6-yl hydrogen sulfate]",more active than Avibactam,more active than Avibactam
"NCCc1nnc([C@@H]2CC[C@@H]3CN2C(=O)N3OS(=O)(=O)O)o1 [Compound 703, (2S,5R)-2-(5-(2-aminoethyl)-1,3,4-oxadiazol-2-yl)-7-oxo-1,6-diazabicyclo[3.2.1]octan-6-yl hydrogen sulfate]",more active than Avibactam,more active than Avibactam
"N=C(N)NCC1(c2nnc([C@@H]3CC[C@@H]4CN3C(=O)N4OS(=O)(=O)O)o2)CC1 [Compound 723, (2S,5R)-2-(5-(1-(guanidinomethyl)cyclopropyl)-1,3,4-oxadiazol-2-yl)-7-oxo-1,6-diazabicyclo[3.2.1]octan-6-yl hydrogen sulfate]",more active than Avibactam,more active than Avibactam
"O=C1N2C[C@@H](CC[C@H]2c2nnc(CCCC3CNC3)o2)N1OS(=O)(=O)O [Compound 743, (2S,5R)-2-(5-(3-(azetidin-3-yl)propyl)-1,3,4-oxadiazol-2-yl)-7-oxo-1,6-diazabicyclo[3.2.1]octan-6-yl hydrogen sulfate]",more active than Avibactam,more active than Avibactam
"N[C@H]1C[C@H](CCc2nnc([C@@H]3CC[C@@H]4CN3C(=O)N4OS(=O)(=O)O)o2)C1 [Compound 753, (2S,5R)-2-(5-(2-((1r,3R)-3-aminocyclobutyl)ethyl)-1,3,4-oxadiazol-2-yl)-7-oxo-1,6-diazabicyclo[3.2.1]octan-6-yl hydrogen sulfate]",more active than Avibactam,more active than Avibactam
"O=C1N2C[C@@H](CC[C@H]2c2nnc([C@H]3CNCCN3)o2)N1OS(=O)(=O)O [Compound 779, (2S,5R)-7-oxo-2-(5-((R)-piperazin-2-yl)-1,3,4-oxadiazol-2-yl)-1,6-diazabicyclo[3.2.1]octan-6-yl hydrogen sulfate]",more active than Avibactam,more active than Avibactam
"CNCCc1nnc([C@@H]2CC[C@@H]3CN2C(=O)N3OS(=O)(=O)O)o1 [Compound 722, (2S,5R)-2-(5-(2-(methylamino)ethyl)-1,3,4-oxadiazol-2-yl)-7-oxo-1,6-diazabicyclo[3.2.1]octan-6-yl hydrogen sulfate]",more active than Avibactam,more active than Avibactam
"O=C1N2C[C@@H](CC[C@H]2c2nnc(COC3CNC3)o2)N1OS(=O)(=O)O [Compound 744, (2S,5R)-2-(5-((azetidin-3-yloxy)methyl)-1,3,4-oxadiazol-2-yl)-7-oxo-1,6-diazabicyclo[3.2.1]octan-6-yl hydrogen sulfate]",more active than Avibactam,more active than Avibactam
"N=C(N)NCCc1nnc([C@@H]2CC[C@@H]3CN2C(=O)N3OS(=O)(=O)O)s1 [Compound 794, (2S,5R)-2-(5-(2-guanidinoethyl)-1,3,4-thiadiazol-2-yl)-7-oxo-1,6-diazabicyclo[3.2.1]octan-6-yl hydrogen sulfate]",more active than Avibactam,more active than Avibactam
"O=C1N2C[C@@H](CC[C@H]2c2nnco2)N1OS(=O)(=O)O [Compound 701, (2S,5R)-2-(1,3,4-oxadiazol-2-yl)-7-oxo-1,6-diazabicyclo[3.2.1]octan-6-yl hydrogen sulfate]",more active than Avibactam,more active than Avibactam
"N=C(N)NC[C@H](O)c1nnc([C@@H]2CC[C@@H]3CN2C(=O)N3OS(=O)(=O)O)o1 [Compound 732, (2S,5R)-2-(5-((S)-2-guanidino-1-hydroxyethyl)-1,3,4-oxadiazol-2-yl)-7-oxo-1,6-diazabicyclo[3.2.1]octan-6-yl hydrogen sulfate]",more active than Avibactam,more active than Avibactam
